{"source": "patent US20100129353A1", "about": "“COMBINATION AND TREATMENT FOR MULTIPLE SCLEROSIS” (Laboratoires Serono S.A., priority 2004, published 2010)", "key": {"[1]": {"system": "brain lesions associated with progression of MS", "experiment": "Study of sixty patients with chronic multiple sclerosis: MRI brain lesions after one year of treatment", "format": "in vivo", "conditions": "seven days once per month for one year, MRI at month 12", "method": "A study of sixty patients with chronic multiple sclerosis is undertaken. Each patient is first examined for normal hepatic, renal, and bone marrow functioning to establish baseline values. [table] Each of the patients in Groups 2-4 and 8-10 is treated with 2-CdA dissolved in sterile preservative-free isotonic saline, whereas patients in Groups 1 and 5-7 receive a placebo (saline). The 2-CdA is administered intravenously for a total of seven days, once per month for a total of one year. Each of the patients in Groups 5-10 is treated with natalizumab, whereas Groups 1-4 received placebo (saline). The natalizumab is administered intravenously for a total of seven days, once per month for a total of one year, with the treatment being on the same day as 2-CdA treatment. Patients are monitored to determine whether there is any progression or improvement of brain lesions associated with progression of MS. All patients have a baseline and MRI study (brain or spinal cord, according to localization of the lesions) at month 12."}, "[2]": {"system": "MRI-measured brain lesions", "conditions": "MS patients, cited from earlier work"}}}
{"compound": "natalizumab: anti-alpha-4 integrin antibody used as the second agent in Example 1", "values": [{"measurement": "change in brain lesions (MRI)", "setting": "[1]; Group 5: natalizumab 1 mg/kg i.v.", "result": "increase in brain lesions"}, {"measurement": "change in brain lesions (MRI)", "setting": "[1]; Group 6: natalizumab 3 mg/kg i.v.", "result": "decrease in brain lesions"}, {"measurement": "change in brain lesions (MRI)", "setting": "[1]; Group 7: natalizumab 6 mg/kg i.v.", "result": "decrease in brain lesions"}]}
{"compound": "Nc1nc(Cl)nc2c1ncn2[C@H]1C[C@H](O)[C@@H](CO)O1", "note": "[2-CdA, 2-chloro-2′-deoxyadenosine]", "values": [{"measurement": "MRI-measured brain lesions", "setting": "[2]; Phase II study as printed (Rice et al., 2000)", "result": "significantly reduced MRI-measured brain lesions"}, {"measurement": "adverse effects", "setting": "[2]; observed with the highest doses", "result": "increased incidence of infections related to compromised immune function or myelosuppression"}, {"measurement": "change in brain lesions (MRI)", "setting": "[1]; Group 2: 2-CdA 0.25 mg/kg i.v.", "result": "increase in brain lesions"}, {"measurement": "change in brain lesions (MRI)", "setting": "[1]; Group 3: 2-CdA 0.5 mg/kg i.v.", "result": "increase in brain lesions"}, {"measurement": "change in brain lesions (MRI)", "setting": "[1]; Group 4: 2-CdA 1 mg/kg i.v.", "result": "decrease in brain lesions"}]}
